Measured values as given in US7138145B2, “Method and apparatus for ozination of grain” (priority 2001, dated 2006).

Experiments:
insects [1] = conditions: fumigation of the grain; cited from earlier work
[2] = tested on: mold, fungus, and some bacteria; conditions: fumigation of the grain; cited from earlier work
insects [3] = test: ozonation of grain stored in an elevator: killing of insects
Description: (§1) It is an object of some embodiments of the present invention to provide a method for treating grain for fungus, mold, bacteria, dust, and insects by exposing the grain to a high concentration of ozone for an extended period of time. The present invention utilizes a powerful fan or fans placed at the bottom of the grain storage facility such as, for example, a silo or grain elevator to draw down through the grain a flow of gas containing ozone between 50 and 100 ppm. Ozone generators placed in the head space at the top of the elevator produce ozone in a concentration in excess of 100 ppm. Monitors placed in this head space assure that the ozone concentration remains at these levels. If the ozone generators are not capable of maintaining the concentration at 100 ppm in the head space, then the draw is reduced by slowing the fan speed. A duct takes drawn gases from the bottom of the elevator and re-circulates those gases into the head space to reduce the amount of ozone needed to be generated during a second pass. To assure that the gases come in contact with all of the grain in the elevator, a technique labeled “pulling the core” is utilized wherein a quantity of grain is removed from the bottom of the elevator at its center to remove a column of grain from the core of the column of grain thereby evenly distribute the grain within the elevator. The material which is pulled from the core is then sent back to the top of the column and evenly distributed across the top.
(§2) The following discussion is directed towards grain stored within a vertical elevator 10. […] In one embodiment, a quantity of ozone is injected into a grain bin, vessel, or truck prior to the grain being loaded into said container in order to treat the grain for mold, bacteria, fungi, and biological load as the grain is loaded. […] In this embodiment, the loading bin is partially enclosed and has injected therein a sufficient quantity of ozone to create a concentration of approximately 100 ppm within the loading bin and the enclosed auger. […]

[4] = tested on: mold, bacteria, and fungus; test: ozonation of grain stored in an elevator: treatment of mold, bacteria and fungus
Description: as §1, §2

[5] = flow of gas containing ozone between 50 and 100 ppm
[6] = ozone concentration maintained for three days
[7] = ozone drawn through grain, over 100 ppm in head space, 50 ppm at bottom of column

| Structure (SMILES) | effect of fumigation on insects (insects [1]) | effect of fumigation on mold, fungus and some bacteria [2] | time within which some insects begin to die (insects [3]; [5]) | destruction of insects (insects [3]; [6]) | exposure after which some insects are killed (insects [3]; [7]) [h] | time within which mold and bacteria begin to die [4, 5] | destruction of mold, bacteria and fungus [4, 6] | time after which smell from mold and fungus disappears [4, 7] [h] |
| --- | --- | --- | --- | --- | --- | --- | --- | --- |
| CBr [methyl bromide] | effective at killing insects | not been effective | – | – | – | – | – | – |
| O=[O+][O-] [ozone] | – | – | twenty-four | almost all insect, mold, bacteria, and fungus will be destroyed | 12 | twenty-four | almost all insect, mold, bacteria, and fungus will be destroyed | 24 |
| P [phosphine] | effective at killing insects | not been effective | – | – | – | – | – | – |
